For 28 molecules, IC50 and DC50 results are on record in patent US20230117034A1, “PYRAZOLOTRIAZINES” (Bayer Aktiengesellschaft, priority 2019, published 2023).

The target of one assay is T1, CDK2/CycE (Homo sapiens, UniProt P24941).
T1 construct: purchased ProQinase GmbH (Freiburg, Germany); host or cells: insect cells (Sf9)
The experiment in a line: CDK2/CycE kinase assay (TR-FRET, 2 mM ATP). It counts as biochemical. As to conditions: 2 mM ATP (high ATP); median; read-out: CDK2/CyclinE, 2 mM ATP (high ATP), IC50 (median). The method in brief: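 GST-tagged human CDK2 and CycE from Sf9 cells, about 10 ng/ml, pre-incubated 15 min at 22 °C with compound in Tris/HCl pH 8.0 buffer. Reaction with 2 mM ATP and 0.75 µM biotinylated peptide for 25 min at 22 °C. Phospho-RB antibody TR-FRET (665/620 nm ratio) read after 1 h; data normalised to no-inhibitor and no-enzyme controls.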
On the technique in general: TR-FRET usually uses a lanthanide donor and a delayed reading to cut background.

The target in assay [1] is T2, CYCLIN K (nuclear staining in CAL-120 cells) (Homo sapiens, UniProt O75909).
T2 construct: endogenous in cells; host or cells: CAL-120 human breast cancer cells (DSMZ ACC 459)
In words: CYCLIN K nuclear protein level: immunofluorescence high content analysis (CAL-120). It counts as cell-based. As to conditions: 24 h, 50% reduction of nuclear CCNK staining intensity, median, read-out: CYCLIN K degradation IF, DC50-[mol/l] (median). The method in brief:
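CAL-120 breast cancer cells treated in dose-response for 24 h at 37 °C, PFA-fixed and immunostained for cyclin K with Hoechst counterstain. Confocal imaging quantified nuclear intensity; DC50 is the concentration giving 50% reduction of nuclear CCNK staining, normalized to DMSO and control.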

T2 sequence (O75909 whole entry): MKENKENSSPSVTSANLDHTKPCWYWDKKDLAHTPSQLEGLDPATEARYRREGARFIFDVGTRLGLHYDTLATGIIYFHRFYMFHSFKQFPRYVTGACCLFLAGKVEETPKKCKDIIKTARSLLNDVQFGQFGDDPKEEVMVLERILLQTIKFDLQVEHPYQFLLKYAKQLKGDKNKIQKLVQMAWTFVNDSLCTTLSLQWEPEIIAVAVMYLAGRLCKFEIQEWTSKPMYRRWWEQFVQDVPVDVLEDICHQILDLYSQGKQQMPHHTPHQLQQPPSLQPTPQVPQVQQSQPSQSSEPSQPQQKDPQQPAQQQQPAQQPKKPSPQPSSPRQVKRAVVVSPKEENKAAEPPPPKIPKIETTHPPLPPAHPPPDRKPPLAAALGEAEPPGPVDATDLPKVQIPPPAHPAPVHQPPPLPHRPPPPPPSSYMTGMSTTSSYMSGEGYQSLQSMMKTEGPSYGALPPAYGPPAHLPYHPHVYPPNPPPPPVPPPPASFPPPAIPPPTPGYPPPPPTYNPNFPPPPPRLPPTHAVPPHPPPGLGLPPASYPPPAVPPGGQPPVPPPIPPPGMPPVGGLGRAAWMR
T2 sequence (Q9NYV4 whole entry partner): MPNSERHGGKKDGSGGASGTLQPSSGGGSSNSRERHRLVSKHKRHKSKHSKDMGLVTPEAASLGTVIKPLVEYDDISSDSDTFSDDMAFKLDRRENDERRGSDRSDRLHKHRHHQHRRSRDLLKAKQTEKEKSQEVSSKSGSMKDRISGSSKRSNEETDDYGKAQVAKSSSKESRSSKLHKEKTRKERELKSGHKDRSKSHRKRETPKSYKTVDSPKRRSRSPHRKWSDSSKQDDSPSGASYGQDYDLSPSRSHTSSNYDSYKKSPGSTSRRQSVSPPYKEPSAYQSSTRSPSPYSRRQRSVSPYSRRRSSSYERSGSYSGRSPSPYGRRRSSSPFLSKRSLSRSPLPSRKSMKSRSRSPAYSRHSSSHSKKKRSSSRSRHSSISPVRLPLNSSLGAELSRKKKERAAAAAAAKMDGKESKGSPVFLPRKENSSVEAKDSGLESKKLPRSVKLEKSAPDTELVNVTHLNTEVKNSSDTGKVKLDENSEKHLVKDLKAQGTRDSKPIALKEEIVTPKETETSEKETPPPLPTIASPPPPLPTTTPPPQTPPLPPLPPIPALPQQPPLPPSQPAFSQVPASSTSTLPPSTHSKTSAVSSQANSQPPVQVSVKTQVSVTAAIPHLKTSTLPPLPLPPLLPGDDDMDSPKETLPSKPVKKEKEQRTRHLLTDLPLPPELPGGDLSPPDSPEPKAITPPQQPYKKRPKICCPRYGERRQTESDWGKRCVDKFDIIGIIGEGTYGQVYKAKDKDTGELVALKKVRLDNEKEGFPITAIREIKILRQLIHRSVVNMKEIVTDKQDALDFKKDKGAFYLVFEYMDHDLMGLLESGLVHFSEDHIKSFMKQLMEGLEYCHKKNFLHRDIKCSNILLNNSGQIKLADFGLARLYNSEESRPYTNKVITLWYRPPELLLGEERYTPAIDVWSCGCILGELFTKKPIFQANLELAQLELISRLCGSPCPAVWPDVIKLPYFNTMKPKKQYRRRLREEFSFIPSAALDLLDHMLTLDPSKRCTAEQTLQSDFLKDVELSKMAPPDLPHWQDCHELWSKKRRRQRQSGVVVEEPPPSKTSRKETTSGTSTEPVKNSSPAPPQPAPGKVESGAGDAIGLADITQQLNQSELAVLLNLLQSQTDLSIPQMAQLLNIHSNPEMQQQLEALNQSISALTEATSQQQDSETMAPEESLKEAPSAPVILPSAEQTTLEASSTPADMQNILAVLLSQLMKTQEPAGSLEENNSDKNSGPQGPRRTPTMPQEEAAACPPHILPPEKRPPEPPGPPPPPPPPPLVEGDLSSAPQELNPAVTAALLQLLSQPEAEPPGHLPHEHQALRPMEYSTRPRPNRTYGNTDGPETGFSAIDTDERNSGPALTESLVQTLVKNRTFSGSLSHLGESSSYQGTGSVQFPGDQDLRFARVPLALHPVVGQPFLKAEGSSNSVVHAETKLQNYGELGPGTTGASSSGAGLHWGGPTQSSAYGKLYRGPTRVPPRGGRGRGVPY

In the case of `CN(C)[C@H]1CCN(c2nc(NCc3nc4ccccc4[nH]3)n3ncc(Br)c3n2)C1` [Example 177, N-[(1H-benzimidazol-2-yl)methyl]-8-bromo-2-[(3S)-3-(dimethylamino)pyrrolidin-1-yl]pyrazolo[1,5-a][1,3,5]triazin-4-amine], on CDK2/CycE, the IC50 was over 20 µM. With `CN(CC(C)(C)O)c1nc(NCc2nc3ccccc3[nH]2)n2ncc(Br)c2n1` [Example 238, 1-[(4-{[(1H-benzimidazol-2-yl)methyl]amino}-8-bromopyrazolo[1,5-a][1,3,5]triazin-2-yl)(methyl)amino]-2-methylpropan-2-ol], the IC50 at CDK2/CycE is 1.86 µM. Moreover, the DC50 in assay [1] amounted to 4190 pM. For `Cc1ccc2[nH]c(CNc3nc(N4C[C@@H](C)N[C@@H](C)C4)nc4c(C5CC5)cnn34)nc2c1` [Example 194, 8-cyclopropyl-2-[(3R,5S)-3,5-dimethylpiperazin-1-yl]-N-[(5-methyl-1H-benzimidazol-2-yl)methyl]pyrazolo[1,5-a][1,3,5]triazin-4-amine], the IC50 on CDK2/CycE was over 20 µM. Further, the DC50 in assay [1] was found to be 95.4 pM. For `CN1CC2CCC1CN2c1nc(NCc2nc3ccccc3[nH]2)n2ncc(Br)c2n1` (stereo not shown) [Example 221, N-(1H-benzimidazol-2-ylmethyl)-8-bromo-2-(5-methyl-2,5-diazabicyclo[2.2.2]octan-2-yl)pyrazolo[1,5-a][1,3,5]triazin-4-amine], in that order: 5.01 µM and 410 pM. For the molecule `FC(F)(F)c1cnn2c(NCc3nc4ccccc4[nH]3)nc(N3CCOCC3)nc12` [Example 241, N-[(1H-benzimidazol-2-yl)methyl]-2-(morpholin-4-yl)-8-(trifluoromethyl) pyrazolo[1,5-a][1,3,5]triazin-4-amine], the IC50 on CDK2/CycE came to 12 µM. In addition, the DC50 in assay [1] was found to be 1260 pM. In the case of `Fc1ccc2[nH]c(CNc3nc(N4CCOCC4)nc4c(C5CC5)cnn34)nc2c1` [Example 181, 8-cyclopropyl-N-[(5-fluoro-1H-benzimidazol-2-yl)methyl]-2-(morpholin-4-yl)pyrazolo[1,5-a][1,3,5]triazin-4-amine], the IC50 on CDK2/CycE was over 20 µM. Also, in assay [1], the DC50 worked out at 503 pM. In the case of `Cc1ccc2[nH]c(CNc3nc(N4C[C@@H](C)N[C@@H](C)C4)nc4c(Br)cnn34)nc2c1` [Example 209, 8-bromo-2-[(3R,5S)-3,5-dimethylpiperazin-1-yl]-N-[(5-methyl-1H-benzimidazol-2-yl)methyl]pyrazolo[1,5-a][1,3,5]triazin-4-amine], at CDK2/CycE, the IC50 is over 20 µM. For the same molecule, in assay [1], the DC50 is 61.9 pM. For the molecule `CN1CCCC2CN(c3nc(NCc4nc5ccccc5[nH]4)n4ncc(Br)c4n3)CC21` (stereo not shown) [Example 231, N-[(1H-benzimidazol-2-yl)methyl]-8-bromo-2-(1-methyloctahydro-6H-pyrrolo[3,4-b]pyridin-6-yl)pyrazolo[1,5-a][1,3,5]triazin-4-amine], on CDK2/CycE, the IC50 came to 12.4 µM. Further, the DC50 in assay [1] came out at 34100 pM. Turning to `Brc1cnn2c(NCc3nc4ccccc4[nH]3)nc(NCCN3CCCC3)nc12` [Example 235, N4-(1H-benzimidazol-2-ylmethyl)-8-bromo-N2-(2-pyrrolidin-1-ylethyl)pyrazolo[1,5-a][1,3,5]triazine-2,4-diamine], at CDK2/CycE, the IC50 was over 20 µM. For `OCCNc1nc(NCc2nc3ccccc3[nH]2)n2ncc(Br)c2n1` [Example 228, 2-[(4-{[(1H-benzimidazol-2-yl)methyl]amino}-8-bromopyrazolo[1,5-a][1,3,5]triazin-2-yl)amino]ethan-1-ol], the IC50 at CDK2/CycE is 9.21 µM.

For the molecule `Cc1ccc2[nH]c(CNc3nc(N4CCOCC4)nc4c(C5CC5)cnn34)nc2c1` [Example 193, 8-cyclopropyl-N-[(5-methyl-1H-benzimidazol-2-yl)methyl]-2-(morpholin-4-yl)pyrazolo[1,5-a][1,3,5]triazin-4-amine], the IC50 at CDK2/CycE worked out at 10.8 µM. In addition, the DC50 in assay [1] stood at 958 pM. `Cc1cc(-c2cnn3c(NCc4nc5ccccc5[nH]4)nc(N4CCN(C)CC4)nc23)ccn1` [Example 243, N-[(1H-benzimidazol-2-yl)methyl]-2-(4-methylpiperazin-1-yl)-8-(2-methylpyridin-4-yl)pyrazolo[1,5-a][1,3,5]triazin-4-amine]: the IC50 on CDK2/CycE was over 20 µM. Regarding `COC(C)(C)CNc1nc(NCc2nc3ccccc3[nH]2)n2ncc(Br)c2n1` [Example 236, N4-(1H-benzimidazol-2-ylmethyl)-8-bromo-N2-(2-methoxy-2-methyl-propyl)pyrazolo[1,5-a][1,3,5]triazine-2,4-diamine], the IC50 at CDK2/CycE was 12.8 µM. In assay [1], the DC50 stood at 1720 pM. For the molecule `CC1(O)CCN(c2nc(NCc3nc4ccccc4[nH]3)n3ncc(Br)c3n2)C1` (stereo not shown) [Example 225, 1-[4-(1H-benzimidazol-2-ylmethylamino)-8-bromo-pyrazolo[1,5-a][1,3,5]triazin-2-yl]-3-methyl-pyrrolidin-3-ol], the IC50 on CDK2/CycE was 5.39 µM.

Consider `COCCNc1nc(NCc2nc3ccccc3[nH]2)n2ncc(Br)c2n1` [Example 230, N4-(1H-benzimidazol-2-ylmethyl)-8-bromo-N2-(2-methoxyethyl)pyrazolo[1,5-a][1,3,5]triazine-2,4-diamine], for which the IC50 at CDK2/CycE was found to be 10.1 µM. As to `CN(CCN1CCCC1)c1nc(NCc2nc3ccccc3[nH]2)n2ncc(Br)c2n1` [Example 239, N4-(1H-benzimidazol-2-ylmethyl)-8-bromo-N2-methyl-N2-(2-pyrrolidin-1-ylethyl)pyrazolo[1,5-a][1,3,5]triazine-2,4-diamine], the IC50 at CDK2/CycE was over 20 µM. In the case of `CC(C)c1cnn2c(NCc3nc4ccccc4[nH]3)nc(Nc3ccncc3)nc12` [Example 14, N^4-[(1H-benzimidazol-2-yl)methyl]-8-(propan-2-yl)-N^2-(pyridin-4-yl)pyrazolo[1,5-a][1,3,5]triazine-2,4-diamine], the IC50 on CDK2/CycE was over 20 µM. Regarding `CN(C)C1CCN(c2nc(NCc3nc4ccccc4[nH]3)n3ncc(Br)c3n2)CC1` [Example 201, N-[(1H-benzimidazol-2-yl)methyl]-8-bromo-2-[4-(dimethylamino)piperidin-1-yl]pyrazolo[1,5-a][1,3,5]triazin-4-amine], the IC50 at CDK2/CycE is over 20 µM.

For the molecule `O[C@H]1CCN(c2nc(NCc3nc4ccccc4[nH]3)n3ncc(Br)c3n2)C1` [Example 224, (3S)-1-(4-{[(1H-benzimidazol-2-yl)methyl]amino}-8-bromopyrazolo[1,5-a][1,3,5]triazin-2-yl)pyrrolidin-3-ol], the IC50 at CDK2/CycE is 7.75 µM. As for `CN1CCN(c2nc(NCc3nc4ccccc4[nH]3)n3ncc(-c4ccncc4)c3n2)CC1` [Example 242, N-[(1H-benzimidazol-2-yl)methyl]-2-(4-methylpiperazin-1-yl)-8-(pyridin-4-yl)pyrazolo[1,5-a][1,3,5]triazin-4-amine], at CDK2/CycE, the IC50 was over 20 µM. On the same count and under the same terms, in the case of `CO[C@@H]1CCN(c2nc(NCc3nc4ccccc4[nH]3)n3ncc(Br)c3n2)C1` [Example 223, N-[(1H-benzimidazol-2-yl)methyl]-8-bromo-2-[(3R)-3-methoxypyrrolidin-1-yl]pyrazolo[1,5-a][1,3,5]triazin-4-amine] it was 14.4 µM; in that of `COc1cccc2[nH]c(CNc3nc(N4C[C@H]5C[C@@H]4CO5)nc4c(C5CC5)cnn34)nc12` [Example 198, 8-cyclopropyl-N-[(4-methoxy-1H-benzimidazol-2-yl)methyl]-2-[(1R,4R)-2-oxa-5-azabicyclo[2.2.1]heptan-5-yl]pyrazolo[1,5-a][1,3,5]triazin-4-amine], 9.94 µM. For `OC1CCCN(c2nc(NCc3nc4ccccc4[nH]3)n3ncc(Br)c3n2)C1` (racemic) [Example 16, (rac)-1-(4-{[(1H-benzimidazol-2-yl)methyl]amino}-8-bromopyrazolo[1,5-a][1,3,5]triazin-2-yl)piperidin-3-ol], the IC50 on CDK2/CycE came to 1.5 µM. In the case of `O=C1CN(c2nc(NCc3nc4ccccc4[nH]3)n3ncc(Br)c3n2)CCN1` [Example 167, 4-(4-{[(1H-benzimidazol-2-yl)methyl]amino}-8-bromopyrazolo[1,5-a][1,3,5]triazin-2-yl)piperazin-2-one], at CDK2/CycE, the IC50 was 15.9 µM.

Regarding `CC(C)c1cnn2c(NCc3nc4ccccc4[nH]3)nc(Nc3ccccc3)nc12` [Example 13, N^4-[(1H-benzimidazol-2-yl)methyl]-N^2-phenyl-8-(propan-2-yl)pyrazolo[1,5-a][1,3,5]triazine-2,4-diamine], the IC50 on CDK2/CycE was over 20 µM.

Turning to `OC1(C(F)(F)F)CCN(c2nc(NCc3nc4ccccc4[nH]3)n3ncc(Br)c3n2)C1` (stereo not shown) [Example 200, 1-[4-(1H-benzimidazol-2-ylmethylamino)-8-bromo-pyrazolo[1,5-a][1,3,5]triazin-2-yl]-3-(trifluoromethyl)pyrrolidin-3-ol], the IC50 at CDK2/CycE stood at 4.63 µM. Consider `CCN(C)c1nc(NCc2nc3ccccc3[nH]2)n2ncc(Br)c2n1` [Example 233, N4-(1H-benzimidazol-2-ylmethyl)-8-bromo-N2-ethyl-N2-methyl-pyrazolo[1,5-a][1,3,5]triazine-2,4-diamine], for which the IC50 on CDK2/CycE is 5.35 µM. As to `CN(C)[C@@H]1CCN(c2nc(NCc3nc4ccccc4[nH]3)n3ncc(Br)c3n2)C1` [Example 178, N-[(1H-benzimidazol-2-yl)methyl]-8-bromo-2-[(3R)-3-(dimethylamino)pyrrolidin-1-yl]pyrazolo[1,5-a][1,3,5]triazin-4-amine], on CDK2/CycE, the IC50 was over 20 µM.
